In ChEMBL document CHEMBL1148261, “Pharmacophore-based search, synthesis, and biological evaluation of anthranilic amides as novel blockers of the Kv1.5 channel” (Bioorg Med Chem Lett, 2004):

What was measured:
[1] = molecular target: T1, Potassium voltage-gated channel subfamily A member 5 (Homo sapiens, UniProt P22460); assay: Inhibitory effect against human voltage-gated potassium channel subunit Kv1.5 expressed in Xenopus oocytes; type: cell-based, Oocyte
[2] = pKa value was determined; type: physicochemical
[3] = molecular target: T1, Potassium voltage-gated channel subfamily A member 5; assay: Percent inhibition of human voltage-gated potassium channel subunit Kv1.5 expressed in Xenopus oocytes at 10 uM; type: cell-based; details: Oocyte
[4] = Oral bioavailability of compound in rats; type: ADME, organism-based; details: rat, in vivo

T1 sequence (P22460 whole entry): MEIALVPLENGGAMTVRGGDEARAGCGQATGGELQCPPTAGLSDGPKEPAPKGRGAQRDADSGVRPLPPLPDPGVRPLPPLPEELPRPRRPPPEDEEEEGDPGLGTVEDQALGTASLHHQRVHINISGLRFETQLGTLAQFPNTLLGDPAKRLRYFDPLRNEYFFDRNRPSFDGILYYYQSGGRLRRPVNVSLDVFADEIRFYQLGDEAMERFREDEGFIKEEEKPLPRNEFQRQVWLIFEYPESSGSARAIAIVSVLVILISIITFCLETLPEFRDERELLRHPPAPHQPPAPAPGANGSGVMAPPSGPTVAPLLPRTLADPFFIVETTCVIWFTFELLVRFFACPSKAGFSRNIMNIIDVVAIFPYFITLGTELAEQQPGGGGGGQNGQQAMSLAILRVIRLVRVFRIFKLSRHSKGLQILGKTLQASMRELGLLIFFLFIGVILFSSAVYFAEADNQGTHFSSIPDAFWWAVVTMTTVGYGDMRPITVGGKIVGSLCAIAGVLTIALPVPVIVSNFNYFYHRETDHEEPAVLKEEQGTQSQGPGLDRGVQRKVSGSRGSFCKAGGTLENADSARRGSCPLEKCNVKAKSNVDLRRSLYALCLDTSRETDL

IC50 [1] [µM]	Structure (SMILES)	also measured
3.8	CC[C@H](NC(=O)c1cc(C(C)=O)ccc1NS(=O)(=O)c1ccc(C)cc1)c1ccccc1	
	CC[C@H](NC(=O)c1cc(OC)ccc1NS(=O)(=O)c1ccc(C)cc1)c1ccccc1	pKa [2]: 7.5
5.6	O=C(NCc1ccccc1)c1cc(Cl)ccc1NS(=O)(=O)c1ccc(Cl)cc1	
2.2	Cc1ccc(S(=O)(=O)Nc2ccccc2C(=O)N(Cc2cccnc2)Cc2cccnc2)cc1	
	CC[C@H](NC(=O)c1cc(OCCOC)ccc1NS(=O)(=O)c1ccc(C)cc1)c1ccccc1	inhibition [3]: 46%
10	CC[C@H](NC(=O)c1ccccc1NS(=O)(=O)CC)c1ccccc1	
1.3	CC[C@H](NC(=O)c1ccccc1NS(=O)(=O)c1ccccc1)c1ccccc1	pKa [2]: 6.9
6.7	Cc1ccc(S(=O)(=O)Nc2ccccc2C(=O)NCCc2ccccc2)cc1	
	CC[C@H](NC(=O)c1ccccc1NS(=O)(=O)c1cccnc1)c1ccccc1	inhibition [3]: 36%
1.6	Cc1ccc(S(=O)(=O)Nc2ccccc2C(=O)NC(c2ccccc2)C2CC2)cc1 (configuration not stated)	
0.7	CC[C@H](NC(=O)c1ccccc1NS(=O)(=O)c1ccc(C)cc1)c1ccccc1	pKa [2]: 7.2
	CC[C@H](NC(=O)c1cc(OCC2CC2)ccc1NS(=O)(=O)c1ccc(C)cc1)c1ccccc1	inhibition [3]: 41%
9	CC[C@H](NC(=O)c1ccccc1NS(=O)(=O)c1cccc2cnccc12)c1ccccc1	
4	CC[C@H](NC(=O)c1ccccc1NS(=O)(=O)c1ccc(C(F)(F)F)cc1)c1ccccc1	pKa [2]: 6.2
0.6	CC[C@H](NC(=O)c1ccccc1NS(=O)(=O)c1cccc2cccnc12)c1ccccc1	
3.8	CC[C@H](NC(=O)c1cc(F)ccc1NS(=O)(=O)c1ccc(Cl)cc1)c1ccccc1	pKa [2]: 6.5
	Cc1ccc(S(=O)(=O)Nc2ccccc2C(=O)N(Cc2ccccc2)Cc2cccnc2)cc1	bioavailability [4]: 43%
	CC[C@H](NC(=O)c1cc(OCN(C)C)ccc1NS(=O)(=O)c1ccc(C)cc1)c1ccccc1	inhibition [3]: 15%
